Earlier results as cited in US8926084B2, “Polymerizable ink composition, ink cartridge containing the same, and inkjet printer” (Ricoh Company, Ltd., priority 2012, dated 2015).
Read-outs that look alike come from different tables or passages of the source.

Details: material evaluated as no skin sensitization or negative in MSDS has an SI value less than 3, cited from earlier work

SMILES	skin sensitization as mentioned in MSDS	skin sensitization as mentioned in MSDS (listed as triethylene glycol divinyl ether)
C=CC(=O)OCC(CC)(COC(=O)C=C)COC(=O)C=C [Trimethylol propane triacrylate (M-309), Trimethylol propane triacrylate]	Toagosei Company, Limited, skin sensitization causing	
C=COCCOCCOCCOC=C [Triethylene glycol divinylether]		free from skin sensitization
